# Results published in paper PMC6934184, “Selective DNA-PKcs inhibition extends the therapeutic index of localized radiotherapy and chemotherapy” (The Journal of Clinical Investigation, 2019).
# Biological target: T1, LRRK2 R1441C (Homo sapiens, UniProt Q5S007, R1441C)
# T1 construct: purchased Thermo Fisher Scientific (Life Technologies) SelectScreen
# Test: SelectScreen Adapta
# Assay type: biochemical
# Procedure: The in vitro kinase selectivity of NU5455 was determined using the SelectScreen Broad Assay Panel (Thermo Fisher Scientific) involving activity and binding assays (Supplemental Table 1). […] Class IA PI3Ks were measured using the p85α subunit.
# Kinase [ATP] % Assay Kinase [ATP] % Assay Kinase [ATP] % Assay Kinase [ATP] % Assay […]
# SGK (SGK1) Km app 8.5 Z MAP4K2 (GCK) Km app 2.7 Z TLK2 n/a -0.3 L STK38 (NDR) n/a -5.9 L
# MERTK (cMER) Km app 8.3 Z CDK2/cyclin A Km app 2.7 Z TGFBR1 (ALK5) n/a -0.4 L MATK (HYL) Km app -6.3 Z
# FYN Km app 8.3 Z EPHA1 Km app 2.7 Z CLK3 Km app -0.5 Z ABL1 E255K Km app -6.6 Z
# TEC n/a 8.1 L CDK2/cyclin E1 n/a 2.7 L MAP3K14 (NIK) n/a -0.5 L STK17A (DRAK1) n/a -6.6 L
# KIT V654A n/a 8.1 L TESK2 n/a 2.7 L AKT3 (PKB gamma) Km app -0.5 Z JAK2 JH1 JH2 Km app -6.7 Z
# ROS1 Km app 8.0 Z SPHK1 Km app 2.7 A MAP3K9 (MLK1) Km app -0.5 Z PRKACB (PRKAC beta) n/a -6.8 L
# FGFR3 K650E Km app 7.9 Z AMPK A2/B1/G1 Km app 2.6 Z IKBKB (IKK beta) Km app -0.6 Z PDGFRA (PDGFR alpha) Km app -6.8 Z
# RAF1 (cRAF) Y340D Y341D 100 7.9 Z DYRK3 Km app 2.6 Z CAMK2A (CaMKII alpha) Km app -0.6 Z NEK9 Km app -7.2 Z
# PI4KA (PI4K alpha) 10 7.8 A CSNK1D (CK1 delta) Km app 2.6 Z PRKCB1 (PKC beta I) Km app -0.7 Z PDK1 Km app -7.3 Z
# HIPK2 Km app 7.8 Z ACVR2A n/a 2.5 L TTK n/a -0.7 L RPS6KB1 (p70S6K) Km app -7.8 Z
# CSK Km app 7.6 Z DDR2 T654M n/a 2.5 L ZAK n/a -0.7 L STK38L (NDR2) n/a -8.4 L
# PRKCG (PKC gamma) Km app 7.6 Z JAK2 Km app 2.5 Z IKBKE (IKK epsilon) Km app -0.7 Z ABL1 G250E Km app -8.5 Z
# SRMS (Srm) Km app 7.5 Z HIPK3 (YAK1) Km app 2.5 Z CAMK2G (CaMKII gamma) n/a -0.8 L PRKD1 (PKC mu) Km app -8.5 Z
# YES1 Km app 7.4 Z AMPK (A1/B1/G2) n/a 2.4 L TLK1 n/a -0.8 L CDK5/p35 Km app -8.6 Z
# RPS6KA5 (MSK1) Km app 7.4 Z MYO3B (MYO3 beta) n/a 2.3 L MAPK12 (p38 gamma) Km app -0.8 Z PDGFRA T674I Km app -8.9 Z
# TNIK n/a 7.3 L PASK Km app 2.3 Z PRKCI (PKC iota) Km app -0.8 Z BLK Km app -8.9 Z
# FER Km app 7.1 Z ACVRL1 (ALK1) n/a 2.3 L PKN2 (PRK2) n/a -1.0 L PRKD2 (PKD2) Km app -9.1 Z
# CDK16 (PCTK1)/cyclin Y n/a 7.0 L EGFR (ErbB1) L861Q Km app 2.2 Z PIM1 Km app -1.0 Z CSNK1G2 (CK1 gamma 2) Km app -9.3 Z
# MST4 Km app 6.9 Z RPS6KA3 (RSK2) Km app 2.1 Z CDK5/p25 Km app -1.1 Z ROCK1 Km app -9.5 Z
# FLT1 (VEGFR1) Km app 6.5 Z STK23 (MSSK1) Km app 2.0 Z SRPK1 Km app -1.1 Z PRKCB2 (PKC beta II) Km app -9.6 Z
# DYRK1A Km app 6.4 Z ALK R1275Q n/a 2.0 L BRSK1 (SAD1) Km app -1.1 Z CSNK1G1 (CK1 gamma 1) Km app -9.9 Z
# PRKCD (PKC delta) Km app 6.2 Z TBK1 Km app 2.0 Z MAP3K3 (MEKK3) n/a -1.1 L ABL2 (Arg) Km app -10.3 Z
# EGFR (ErbB1) Km app 6.0 Z ACVR1B (ALK4) Km app 2.0 Z AMPK A1/B1/G1 Km app -1.2 Z STK3 (MST2) Km app -10.3 Z
# CDC7/DBF4 n/a 6.0 L CDK3/cyclin E1 n/a 1.9 L WNK3 n/a -1.2 L CAMK4 (CaMKIV) Km app -10.4 Z
# JAK3 Km app 6.0 Z KDR (VEGFR2) Km app 1.8 Z LATS1 n/a -1.3 L MKNK1 (MNK1) Km app -10.7 Z
# MAPK13 (p38 delta) Km app 5.8 Z ULK1 n/a 1.8 L DMPK n/a -1.5 L FLT3 ITD n/a -11.6 L
# FRAP1 (mTOR) Km app 5.7 Z AURKB (Aurora B) Km app 1.7 Z CDK2/cyclin A1 n/a -1.6 L CHEK2 (CHK2) Km app -11.7 Z
# KIT Y823D n/a 5.6 L LRRK2 Km app 1.7 A LIMK1 n/a -1.7 L LTK (TYK1) Km app -13.1 Z
# ITK Km app 5.5 Z MAP2K3 (MEK3) n/a 1.6 L DYRK1B Km app -1.8 Z JAK2 JH1 JH2 V617F Km app -13.8 Z
# KIT Km app 5.3 Z DAPK1 Km app 1.6 A DDR1 n/a -1.8 L EPHA8 Km app -13.8 Z
# CDK7/cyclin H/MNAT1 Km app 5.3 A EPHA6 n/a 1.6 L BTK Km app -2.0 Z EGFR (ErbB1) T790M L858R Km app -14.1 Z
# RET Km app 5.2 Z MAP4K1 (HPK1) n/a 1.6 L ADRBK1 (GRK2) Km app -2.0 Z MET M1250T Km app -14.5 Z […]
# T1 sequence (Q5S007 whole entry R1441C): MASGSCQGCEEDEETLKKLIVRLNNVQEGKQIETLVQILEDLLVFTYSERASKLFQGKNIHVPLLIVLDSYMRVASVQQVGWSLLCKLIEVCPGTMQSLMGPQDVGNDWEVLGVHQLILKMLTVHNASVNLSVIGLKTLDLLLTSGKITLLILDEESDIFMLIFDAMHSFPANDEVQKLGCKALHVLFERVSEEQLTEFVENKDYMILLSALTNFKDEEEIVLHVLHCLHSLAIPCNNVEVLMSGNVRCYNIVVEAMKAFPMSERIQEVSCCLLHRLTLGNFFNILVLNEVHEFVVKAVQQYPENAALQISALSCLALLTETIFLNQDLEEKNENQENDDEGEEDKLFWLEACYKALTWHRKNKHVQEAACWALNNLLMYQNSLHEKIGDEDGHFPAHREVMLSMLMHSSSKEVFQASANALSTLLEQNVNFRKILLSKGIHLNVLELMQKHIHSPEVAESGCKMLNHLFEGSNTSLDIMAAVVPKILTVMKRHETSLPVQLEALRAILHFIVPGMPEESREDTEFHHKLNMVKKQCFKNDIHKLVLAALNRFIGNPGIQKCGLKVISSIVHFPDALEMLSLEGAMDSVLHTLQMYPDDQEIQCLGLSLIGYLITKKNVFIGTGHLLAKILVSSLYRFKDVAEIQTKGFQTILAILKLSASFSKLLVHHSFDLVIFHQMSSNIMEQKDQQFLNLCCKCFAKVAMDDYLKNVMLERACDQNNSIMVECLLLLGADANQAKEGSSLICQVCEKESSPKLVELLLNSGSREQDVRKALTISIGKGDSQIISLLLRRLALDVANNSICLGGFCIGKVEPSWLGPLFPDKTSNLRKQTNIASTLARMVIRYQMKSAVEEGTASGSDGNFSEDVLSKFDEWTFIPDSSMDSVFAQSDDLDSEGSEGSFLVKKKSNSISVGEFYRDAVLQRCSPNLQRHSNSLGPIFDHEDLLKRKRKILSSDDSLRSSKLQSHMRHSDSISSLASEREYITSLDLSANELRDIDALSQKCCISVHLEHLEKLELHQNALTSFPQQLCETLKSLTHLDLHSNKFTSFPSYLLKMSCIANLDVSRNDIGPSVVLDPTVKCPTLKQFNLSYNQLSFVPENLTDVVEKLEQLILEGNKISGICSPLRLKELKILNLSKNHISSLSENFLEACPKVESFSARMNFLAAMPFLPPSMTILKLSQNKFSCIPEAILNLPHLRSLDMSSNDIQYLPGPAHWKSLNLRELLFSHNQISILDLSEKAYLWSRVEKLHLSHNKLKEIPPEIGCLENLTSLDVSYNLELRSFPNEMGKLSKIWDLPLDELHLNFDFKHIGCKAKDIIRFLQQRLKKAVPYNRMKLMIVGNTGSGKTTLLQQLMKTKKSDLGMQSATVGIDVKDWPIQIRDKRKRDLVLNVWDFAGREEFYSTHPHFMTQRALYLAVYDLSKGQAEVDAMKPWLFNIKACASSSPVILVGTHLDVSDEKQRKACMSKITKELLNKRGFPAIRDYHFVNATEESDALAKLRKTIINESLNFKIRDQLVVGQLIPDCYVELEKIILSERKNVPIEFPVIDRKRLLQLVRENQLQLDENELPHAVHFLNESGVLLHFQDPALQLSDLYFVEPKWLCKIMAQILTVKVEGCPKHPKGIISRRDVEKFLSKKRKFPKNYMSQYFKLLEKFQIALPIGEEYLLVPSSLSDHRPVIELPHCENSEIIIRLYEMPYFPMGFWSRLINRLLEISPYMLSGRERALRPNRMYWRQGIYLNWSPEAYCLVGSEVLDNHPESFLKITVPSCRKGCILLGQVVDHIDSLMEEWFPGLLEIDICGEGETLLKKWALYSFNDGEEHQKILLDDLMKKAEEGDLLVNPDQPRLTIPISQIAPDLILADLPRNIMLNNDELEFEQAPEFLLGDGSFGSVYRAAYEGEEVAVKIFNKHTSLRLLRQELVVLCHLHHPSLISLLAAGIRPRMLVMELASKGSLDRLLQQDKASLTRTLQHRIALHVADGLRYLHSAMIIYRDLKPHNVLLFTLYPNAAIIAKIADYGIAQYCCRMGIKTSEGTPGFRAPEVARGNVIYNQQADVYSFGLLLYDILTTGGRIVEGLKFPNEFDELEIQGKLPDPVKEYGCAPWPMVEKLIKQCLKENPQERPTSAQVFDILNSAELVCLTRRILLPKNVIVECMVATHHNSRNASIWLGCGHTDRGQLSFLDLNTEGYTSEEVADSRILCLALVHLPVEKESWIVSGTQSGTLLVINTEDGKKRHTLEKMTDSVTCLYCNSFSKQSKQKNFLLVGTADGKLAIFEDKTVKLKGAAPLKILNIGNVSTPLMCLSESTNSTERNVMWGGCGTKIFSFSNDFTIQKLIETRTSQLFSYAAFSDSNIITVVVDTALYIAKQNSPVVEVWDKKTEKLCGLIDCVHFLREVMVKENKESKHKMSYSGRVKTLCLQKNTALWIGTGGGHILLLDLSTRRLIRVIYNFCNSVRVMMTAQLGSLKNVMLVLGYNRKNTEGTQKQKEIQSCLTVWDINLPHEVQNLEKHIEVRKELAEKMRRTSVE
compound,measurement,value
CN(C(=O)CN1CCOCC1)c1ccc2sc3c(-c4cccc5c(=O)cc(N6CC7CCC(C6)O7)oc45)cccc3c2c1 [NU5455],inhibition at 1 µM,1.8%
